Data set [1] concerns human platelet-rich plasma. In words: Platelet aggregation inhibition after induction by ADP, arachidonic acid or collagen. Conditions: different concentrations. The data set is classed as cell-based. The procedure:
Platelet aggregation inhibition was evaluated after the induction of aggregation by ADP, arachidonic acid or collagen in human platelet-rich plasma [Bertele, V. et al. Science 1983, 220(4596): 517-9; Knöfler, R. et al. Thromb Res 1995, 77(1): 69-78]. […] Platelet function was additionally tested under rheological conditions in human whole blood using a platelet function test device, PFA-100 [Frossard, M. et al. Circulation 2004, 110(11): 1392-7; Hennekens, C.H. et al. Circulation 2004, 110(12): 1706-8]. An increase (26%-30%) in aggregation time in the presence of collagen-epinephrine was noted, indicating platelet aggregation-inhibitory activity for compounds in examples 1 to 12 at 1 µM concentration under rheological conditions.

A further data set has as its system fed mice. In words: Blood glucose after i.p. glucose challenge, fed mice. The format is in vivo. The procedure: (§1) Male C57BL/6 mice weighing 25 ± 3 g were provided by Harlan. Space allocation for five animals was 29 x 18 x 13 cm. All animals were maintained in a controlled temperature (21-23 °C) and humidity (50-70%) environment on a 12-hour light/dark cycle for 7 days in the animal facilities. Free access to standard chow for mice and reverse osmosis water were given. All aspects of this work, including housing, experimentation and disposal of animals, were performed in general accordance with the Guide for the Care and Use of Laboratory Animals.
(§2) Then, the blood glucose concentrations were measured at 15, 30, 60, 90, and 120 minutes after the glucose injection (Glucometer and Reactive Strips Accu-chek Aviva, Roche) [Zhang, W. et al. Pharmacol Res 2011, 63: 284-93]. Free access to food and water was maintained throughout the study. Under fasting conditions, mice were deprived of food 4 hours before and during the experiment and the experimental protocol was followed as detailed above.

The test system of a further data set is fasted mice. Briefly: Blood glucose after i.p. glucose challenge, fasted mice. The format is in vivo. The following applies: oral. The procedure:
as §1, §2

Data set [2] concerns streptozotocin-induced diabetic mice. Briefly: Blood glucose in mice with streptozotocin-induced diabetes. Conditions: for reduction in blood glucose concentrations when compared to basal values: range over the experimental time points. The data set is classed as in vivo. The procedure:
as §1
In mice with streptozotocin-induced diabetes [Tokunaga, H. et al. Eur J Pharmacol 1983, 87(2-3): 237-43], diabetes was induced with a […] i.p. injection of streptozotocin (Sigma) 50 mg/kg body weight, freshly dissolved in NaCl 0.9% during 5 consecutive days. After 4 weeks, those mice (80%) with basal glucose concentrations under fasting (4 hours) conditions above 220 mg/dL were included in the assay. The test substance, positive and negative controls were administered by the p.o. route 30 minutes before measurement of the blood glucose concentrations at 0, 15, 30, 60, 90, and 120 minutes. Free access to water was maintained throughout the study.

The nature of data set [3]: Maximum tolerated dose after single oral administration. Conditions: mouse, in vivo, mice, observed up to 72 hours. The procedure:
The maximum tolerated dose (MTD) was assessed in mice after single oral administration of high doses of Example 1 of 1 g/kg, 500 mg/kg, and 100 mg/kg, and the development of acute toxic symptoms (mortality, convulsions, tremors, muscle relaxation, sedation, etc.) and autonomic effects (diarrhea, salivation, lacrimation, vasodilation, piloerection, etc.) was observed during the first hour. The animals were then observed again for mortality at 3, 24, 48, and 72 hours. The mice were sacrificed if they lost more than 20% of their body weight or if there were other signs of significant toxicity. The MTD obtained for Example 1 in the above experimental conditions was 1 g/kg.

Data set [4] deals with Syrian hamster embryo (SHE) cell, BALB/c 3T3, and CH310T1/2. In words: Cell transformation assays (CTAs), carcinogenic assessment. The following applies: CTA assays, compared with structurally related compounds with carcinogenic potential. The data set is classed as cell-based. From the text: Carcinogenic potential may arise from a direct genotoxic effect or nongenotoxic effects. Epigenetic factors may contribute to tumor cell proliferation by routes other than a direct interaction with DNA. In that case, xenobiotics may act as cancer promoters in species other than those employed in preclinical drug development. Cell transformation assays (CTAs), including the main in vitro CTAs --the Syrian hamster embryo (SHE) cell, BALB/c 3T3, and CH310T1/2 assays-- are experimental tools reviewed by the OECD [Environment, Health and Safety Publications, Series on Testing and Assessment nº 31. Detailed review paper on cell transformation assays for detection of chemical carcinogens. November 28, 2006].

By MTD is commonly meant the largest dose that counted as tolerated. The low end stands for a narrow tolerated range, the high end for a wide tolerated range. For the molecule `CCc1ccc(Cc2ccc3c(c2)[C@@H]2O[C@H](CO)[C@@H](O)[C@H](O)[C@H]2OC3=O)cc1` [Example 1, (2R,3S,4S,4aR,10bS)-9-(4-Ethylbenzyl)-3,4-dihydroxy-2-(hydroxymethyl)-3,4,4a,10b-tetrahydropyrano[3,2-c][2]benzopyran-6(2H)-one], in data set [1], the “inhibition of platelet aggregation” value is listed as “inhibition of platelet aggregation”. The “decrease in blood glucose concentrations” value is given as “decrease in blood glucose concentrations” in the data set with fed mice (fed mice, oral, after i.p. glucose challenge (1 g/kg)); “decrease in blood glucose concentrations” in the data set on fasted mice (fasted mice, after i.p. glucose challenge (1 g/kg)); “decrease in blood glucose concentrations” in data set [2] (mice with streptozotocin-induced diabetes, oral). Moreover, the “reduction in blood glucose concentrations when compared to basal values” in the data set on fed mice (fed, single oral dose 3 mg/kg, 90 minutes after glucose challenge) amounted to 12.01%; in the data set on fed mice (fed, single oral dose 3 mg/kg, 120 minutes after glucose challenge), 9.63%; in the data set on fed mice (fed, single oral dose 30 mg/kg, 90 minutes after glucose challenge), 6.04%; in the data set on fed mice (fed, single oral dose 30 mg/kg, 120 minutes after glucose challenge), 4.71%; with fed mice (fed, single oral dose 300 mg/kg, 90 minutes after glucose challenge), 2.52%; in the data set with fed mice (fed, single oral dose 300 mg/kg, 120 minutes after glucose challenge), 10.2%. Besides, the “reduction in blood glucose concentrations when compared to basal values” in data set [2] (3 mg/kg oral) was 7-22%; in data set [2] (30 mg/kg oral), 7-26%; in data set [2] (300 mg/kg oral), 18-42%. Also, the hypoglycemic activity entry in the data set with fasted mice (fasted, 0.3 mg/kg) was “hypoglycemic activity”. Besides, the hypoglycemic effect entry in data set [2] (0.1 mg/kg) is listed as “No relevant hypoglycemic effect”. The maximal tolerated dose (MTD) at 72 h in data set [3] stood at 1000 mg/kg. Moreover, in data set [4], the carcinogenic potential result is “no carcinogenic potential”.

As to `CCCCNC(=O)NS(=O)(=O)c1ccc(C)cc1` [Tolbutamide, reference compound], the “decrease in blood glucose concentrations” value in the data set with fed mice (fed, positive control, dose not given, 90 minutes after glucose challenge) stood at 7.76%; in the data set on fed mice (fed, positive control, dose not given, 120 minutes after glucose challenge), 3.22%.

The values are drawn from patent EP2573088A1, “Pyrano[3,2-c]benzopyran-6(2h)-one derivatives and uses thereof” (Prous Institute for Biomedical Research, S.A., priority 2011, dated 2013).
